# Assays:
# [1] = system: TNFα; experiment: TNFα secretion by human white blood cells stimulated with PMA/ionomycin, synergy score; format: cell-based; conditions: PBMC stimulated with PMA/Ionomycin
# Description: A 100 μl suspension of diluted human white blood cells contained within each well of a polystyrene 384-well plate (NalgeNunc) was stimulated to secrete TNFα by treatment with a final concentration of 10 ng/mL phorbol 12-myristate 13-acetate (Sigma, P-1585) and 750 ng/mL ionomycin (Sigma, I-0634). Various concentrations of each test compound were added at the time of stimulation. After 16-18 hours of incubation at 37° C. in a humidified incubator, the plate was centrifuged and the supernatant transferred to a white opaque polystyrene 384-well plate (NalgeNunc, Maxisorb) coated with an anti-TNFα antibody (PharMingen, #551220). After a two-hour incubation, the plate was washed (Tecan PowerWasher 384) with PBS containing 0.1% Tween 20 and incubated for an additional one hour with another anti-TNFα antibody that was biotin labeled (PharMingen, #554511) and HRP coupled to strepavidin (PharMingen, #13047E). After the plate was washed with 0.1% Tween 20/PBS, an HRP-luminescent substrate was added to each well and light intensity measured using a LJL Analyst plate luminometer.
# The synergy scores calculated for the various combinations of compounds set forth in Table 3 was calculated by the formula S=log fX log fYΣIdata(Idata−ILoewe), summed over all non-single-agent concentration pairs, and where log fX,Y are the natural logarithm of the dilution factors used for each single agent. This effectively calculates a volume between the measured and Loewe additive response surfaces, weighted towards high inhibition and corrected for varying dilution factors.
# [2] = system: carrageenan-induced pain model in rats; experiment: Carrageenan pain model, mechanical allodynia by Von Frey filaments; format: in vivo, Sprague-Dawley rats; conditions: for Mean AUC ± SEM: AUC from 20 minutes through 120 minutes following carrageenan injection; for Mean change from baseline ± SEM: Experiment Two; for mean change from baseline: Table 4
# Description: The carrageenan model is a fast, reliable model used to assess the ability of analgesics to block inflammatory pain. The analgesic effects of test article combinations on pain generation are assayed using the carrageenan-induced pain model in rats. Adult male Sprague-Dawley rats are administered study drugs intraperitoneally (vehicle, tricyclic compound (TCA), steroid or TCA/Steroid test article combinations) once daily for 2 days (day −2 and day −1) and 30 minutes prior to the carrageenan injection on day 0 (time=0). For the carrageenan injection, animals are lightly anesthetized and 0.1 ml of 2% carrageenan is injected into the plantar surface of the right hind paw. The positive control diclofenac at a dose of 25 mg/kg is administered intraperitoneally immediately before the carrageenan injection. Paw volumes (right and left) are measured using a plathysmometer before drug administration on day −2 and serve as a baseline measurement. The paw volumes are measured again two hours post carrageenan injection. The degree of mechanical allodynia is measured by a blinded observer using Von Frey filaments applied to the plantar surface of the hind paws in an increasing numerical order. Each filament increases the force applied on the paw. The filaments are applied until animal paw withdrawal is achieved. This procedure is carried out before drug administration (day −2), on day −1 and on day 0 at time=0, 20, 40, 60, 80 and 120 minutes post-carrageenan. The force (expressed in grams) required for paw withdrawal after carrageenan injection is subtracted from the force required for paw withdrawal before carrageenan injection. Results are expressed as mean change from baseline across five timepoints post carrageenan injection in Table 4.
# For a synergy calculation, experimental data from the carrageenan study are fitted to a median-effect model and used to calculate the parameters' median-effect dose (Dm), slope (m), correlation coefficient (r), combination index (CI) and dose-reduction index (DRI). In addition, the probability of pain inhibition occurring after single-component (nortriptyline) versus the combination drug treatments are calculated from the negative change from baseline data using a Bayesian sensitivity analysis. The likelihood of pain inhibition is characterized for nortriptyline administered alone (1 mg/kg or 3 mg/kg) versus the fixed-dose combination treatments [prednisolone (0.3 mg/kg):nortriptyline (1 mg/kg) or prednisolone (1 mg/kg):nortriptyline (3 mg/kg)] each evaluated at 60 and 80 minutes for analgesic effect.
# In another example, the effects of test article combinations on pain inhibition were assayed using the carrageenan model in rodents. Desipramine was tested alone and in combination at 0.3, 1, and 3 mg/kg and prednisolone was tested similarly at 0.3, 1 and 3 mg/kg IP.
smiles,measurement,setting,value
CNCCC=C1c2ccccc2CCc2ccccc21 [Nortriptyline],Synergy Score based on TNF-α inhibition,[1]; combination with Betamethasone,0.83
same,Synergy Score based on TNF-α inhibition,[1]; combination with Budesonide,1.6
same,Synergy Score based on TNF-α inhibition,[1]; combination with Dexamethasone,1.7
same,Synergy Score based on TNF-α inhibition,[1]; combination with Hydrocortisone,0.72
same,Synergy Score based on TNF-α inhibition,[1]; combination with Prednisolone,1.1
same,Synergy Score based on TNF-α inhibition,[1]; combination with Triamcinolone,0.88
same,Mean AUC ± SEM,[2]; 1 mg/Kg,1895 ± 547.01
same,Mean AUC ± SEM,[2]; 3 mg/Kg,3082 ± 275.81
same,Mean change from baseline ± SEM,"[2]; first set of rows, 1 mg/kg, 20 minutes",16.94 ± 7.35 g
same,Mean change from baseline ± SEM,"[2]; first set of rows, 1 mg/kg, 40 minutes",17.01 ± 7.37 g
same,Mean change from baseline ± SEM,"[2]; first set of rows, 1 mg/kg, 60 minutes",22.36 ± 4.36 g
same,Mean change from baseline ± SEM,"[2]; first set of rows, 1 mg/kg, 80 minutes",29.59 ± 4.80 g
same,Mean change from baseline ± SEM,"[2]; first set of rows, 1 mg/kg, 120 minutes",37.64 ± 5.20 g
same,Mean change from baseline ± SEM,"[2]; first set of rows, 3 mg/kg, 20 minutes",5.83 ± 6.21 g
same,Mean change from baseline ± SEM,"[2]; first set of rows, 3 mg/kg, 40 minutes",5.83 ± 6.21 g
same,Mean change from baseline ± SEM,"[2]; first set of rows, 3 mg/kg, 60 minutes",12.87 ± 5.09 g
same,Mean change from baseline ± SEM,"[2]; first set of rows, 3 mg/kg, 80 minutes",15.84 ± 5.10 g
same,Mean change from baseline ± SEM,"[2]; first set of rows, 3 mg/kg, 120 minutes",35.98 ± 4.09 g
same,Mean change from baseline ± SEM,"[2]; second set of rows, 1 mg/kg, 20 minutes",17.00 ± 6.43 g
same,Mean change from baseline ± SEM,"[2]; second set of rows, 1 mg/kg, 40 minutes",-4.25 ± 4.25 g
same,Mean change from baseline ± SEM,"[2]; second set of rows, 1 mg/kg, 60 minutes",32.50 ± 4.96 g
same,Mean change from baseline ± SEM,"[2]; second set of rows, 1 mg/kg, 80 minutes",29.75 ± 4.25 g
same,Mean change from baseline ± SEM,"[2]; second set of rows, 1 mg/kg, 120 minutes",33.88 ± 5.21 g
same,Mean change from baseline ± SEM,"[2]; second set of rows, 3 mg/kg, 20 minutes",17.00 ± 6.43 g
same,Mean change from baseline ± SEM,"[2]; second set of rows, 3 mg/kg, 40 minutes",0.00 ± 6.43 g
same,Mean change from baseline ± SEM,"[2]; second set of rows, 3 mg/kg, 60 minutes",17.00 ± 6.43 g
same,Mean change from baseline ± SEM,"[2]; second set of rows, 3 mg/kg, 80 minutes",0.00 ± 0.00 g
same,Mean change from baseline ± SEM,"[2]; second set of rows, 3 mg/kg, 120 minutes",0.00 ± 0.00 g
same,mean change from baseline,"[2]; 1 mg/kg ip, 20 minutes post carrageenan",25.50 ± 7.90 grams
same,mean change from baseline,"[2]; 1 mg/kg ip, 40 minutes post carrageenan",−4.70 ± 8.13 grams
same,mean change from baseline,"[2]; 1 mg/kg ip, 60 minutes post carrageenan",−59.30 ± 10.6 grams
same,mean change from baseline,"[2]; 1 mg/kg ip, 80 minutes post carrageenan",−99.70 ± 13.75 grams
same,mean change from baseline,"[2]; 1 mg/kg ip, 120 minutes post carrageenan",−146.90 ± 19.62 grams
same,mean change from baseline,"[2]; 3 mg/kg ip, 20 minutes post carrageenan",7.40 ± 10.10 grams
same,mean change from baseline,"[2]; 3 mg/kg ip, 40 minutes post carrageenan",−49.20 ± 11.54 grams
same,mean change from baseline,"[2]; 3 mg/kg ip, 60 minutes post carrageenan",−109.20 ± 11.54 grams
same,mean change from baseline,"[2]; 3 mg/kg ip, 80 minutes post carrageenan",−169.20 ± 11.54 grams
same,mean change from baseline,"[2]; 3 mg/kg ip, 120 minutes post carrageenan",−205.40 ± 11.35 grams
same,mean change from baseline,"[2]; 10 mg/kg ip, 20 minutes post carrageenan",−4.00 ± 8.20 grams
same,mean change from baseline,"[2]; 10 mg/kg ip, 40 minutes post carrageenan",−68.60 ± 10.46 grams
same,mean change from baseline,"[2]; 10 mg/kg ip, 60 minutes post carrageenan",−112.80 ± 13.51 grams
same,mean change from baseline,"[2]; 10 mg/kg ip, 80 minutes post carrageenan",−157.00 ± 17.21 grams
same,mean change from baseline,"[2]; 10 mg/kg ip, 120 minutes post carrageenan",−185.80 ± 20.18 grams
same,mean change from baseline,"[2]; 20 mg/kg ip, 20 minutes post carrageenan",−17.60 ± 5.89 grams
same,mean change from baseline,"[2]; 20 mg/kg ip, 40 minutes post carrageenan",−74.20 ± 7.72 grams
same,mean change from baseline,"[2]; 20 mg/kg ip, 60 minutes post carrageenan",−130.80 ± 10.37 grams
same,mean change from baseline,"[2]; 20 mg/kg ip, 80 minutes post carrageenan",−190.80 ± 10.37 grams
same,mean change from baseline,"[2]; 20 mg/kg ip, 120 minutes post carrageenan",−255.40 ± 14.97 grams
same,decrease of median-effect dose (Dm) after co-administration compared to the monotherapy,"[2]; median-effect model, prednisolone/nortriptyline 1:3 fixed ratios",4 fold

# From patent US20080280862A1, “Methods, compositions, and kits for the treatment of pain” (priority 2007, published 2008)
